# Data as given in patent US6403554B2, “Polyunsaturated fatty acid derivatives and their use” (Ardenia Investments Ltd., priority 1998, dated 2002).
# Experiments:
# [1] = tested on: antibody-forming cells (AFC) in the spleen; assay: Humoral immune response: counting antibody-forming cells (AFC) in the spleen according to Cunningham, mice immunised with sheep erythrocytes; format: in vivo, C57B1/6 mice; conditions: for Amount of antibody-forming cells per 10^6 spleen cells, M ± SEM (relative amount of AFC) / Amount of antibody-forming cells per spleen, M ± SEM (total AFC amount): 5-th day after injection, female mice; for Effect, % on AFC per 10^6 spleen cells / Effect, % on AFC per spleen: versus animals immunised only with sheep erythrocytes; for Dose at which immunostimulating effect in vivo is displayed (micelle form): compound alone
# Description: (§1) 0.15 ml of compound 10 was administered intravenously to 6 mice females of CS7B1/6 line (weight 18-22 g) in doses of 45.5, 91 and 136.5 μg of compound 10 per capita for each testing group according to the dose. Simultaneously, a suspension of 5·10^7 sheep erythrocytes was injected intraperitoneally (0.2 ml per capita). Mice in the control group were injected intravenously with equal volume of saline. The effects of compound 10 on humoral immune response were analyzed both by counting the quantity of AFC in the spleen according to Cunningham (per 10^6 spleen cells and per spleen) and estimating the titers of hemagglutining antibodies in serum of the animals (Cunningham A. J., Nature, 1965, Vol.207, No 5001. P.1106-1107), while the titers of hemagglutinating antibodies were evaluated according to litterature (Evans J. et al., Cell, 1974; Vol 3., p.153-158, Feizi T., Menger E., Transfusion, 1970, Vol. 10, p.33-35,).
# (§2) 0.15 ml of compound 11 was administered intravenously to 6 female mice of the C57B1/6 line (weight 18-22 g) in doses of 45.5, 91 and 136.5 μg of compound 11 per capita for each testing group according to the dose. Simultaneously, a suspension of 5·10^7 sheep erytrocytes was injected intraperitoneally (0.2 ml per capita). Mice in the control group were injected intravenously with an equal volume of saline. The effects of compound 11 on humoral immune response was analysed both by counting the quantity of AFC in the spleen according to Cunningham (per 10^6 spleen cells and per spleen) and estimating the titers of hemagglutining antibodies in serum of the animals.
# as §2, with “12” for “11”, “erythrocytes” for “erytrocytes”, “analyzed” for “analysed”
# as §2, with “compound 8” for “compound 11”, “sheep erythrocytes” for “sheep erytrocytes”, “Mice of” for “Mice in”, “response were analyzed” for “response was analysed”
# as §2, with “compound 3” for “compound 11”, “Mice of” for “Mice in”, “with” for “with an”, “response were” for “response was”
# (§3) 0.15 ml of compound 4 was administered intravenously to 6 female mice of the C57B1/6 line (weight 18-22 g) in a doses of 45.5, 91 and 136.5 μg of compound 4 per capita for each testing group according to the dose. Simultaneously, a suspension of 5·10^7 sheep erythrocytes was injected intraperitoneally (0.2 ml per capita). […]
# [2] = tested on: hemagglutinating antibodies in serum; assay: Humoral immune response: titers of hemagglutinating antibodies in serum; format: in vivo, C57B1/6 mice; conditions: for Amount of hemagglutinins: serum, female mice; for Effect, % on hemagglutinins: versus control
# Description: as §1, §2
# as §2, with “12” for “11”, “erythrocytes” for “erytrocytes”, “analyzed” for “analysed”
# as §2, with “compound 8” for “compound 11”, “sheep erythrocytes” for “sheep erytrocytes”, “Mice of” for “Mice in”, “response were analyzed” for “response was analysed”
# as §2, with “compound 3” for “compound 11”, “Mice of” for “Mice in”, “with” for “with an”, “response were” for “response was”
# as §3
# [3] = tested on: antibody-forming cells (AFC) in the spleen; assay: Influence of compound on humoral immune response to sheep erythrocytes, C57B1/6 female mice (AFC in spleen, hemagglutinins); format: in vivo; conditions: for Amount of antibody-forming cells per 10^6 spleen cells / Amount of antibody-forming cells per spleen / Effect on relative amount of AFC (per 10^6 spleen cells) / Effect on total AFC amount (per spleen) / Spleen index / Effect on hemagglutinin titers: i.v.; for Amount of antibody-forming cells per 10^6 spleen cells / Amount of antibody-forming cells per spleen / Effect on relative amount of AFC (per 10^6 spleen cells) / Effect on total AFC amount (per spleen): 5th day; for Amount of antibody-forming cells per 10^6 spleen cells / Amount of antibody-forming cells per spleen: M ± SEM; for Effect on relative amount of AFC (per 10^6 spleen cells) / Effect on total AFC amount (per spleen) / Effect on hemagglutinin titers: vs control; for Spleen index: with SRBC i.p.
# Description: The increase was calculated as compared with the amount of cells in the animals immunised only with sheep erythrocytes.
# as §1, §2
# as §2, with “12” for “11”, “erythrocytes” for “erytrocytes”, “analyzed” for “analysed”
# as §2, with “compound 8” for “compound 11”, “sheep erythrocytes” for “sheep erytrocytes”, “Mice of” for “Mice in”, “response were analyzed” for “response was analysed”
# 0.15 ml of compound 3 was administered intravenously to 6 female mice of the C57B1/6 line (weight 18-22 g) in doses of 45.5, 91 and 136.5 μg of compound 3 per capita for each testing group according to the dose. Simultaneously, a suspension of 5·10^7 sheep erytrocytes was injected intraperitoneally (0.2 ml per capita). Mice of the control group were injected intravenously with equal volume of saline.
compound,measurement,setting,value
"CC1=C(/C=C/C(C)=C/C=C/C(C)=C/C(=O)N[C@@H](Cc2ccc(OP(=O)(O)O)cc2)C(=O)O)C(C)(C)CCC1 (stereo in doubt) [Compound 4, N-(all-trans-retinoyl)-o-phospho-L-tyrosine]","Amount of antibody-forming cells per 10^6 spleen cells, M ± SEM (relative amount of AFC)",[1]; 45.5 μg/mouse i.v.,405.0±47.9
same,"Amount of antibody-forming cells per spleen, M ± SEM (total AFC amount)",[1]; 45.5 μg/mouse i.v.,55.0±6.7 × 10^3
same,"Effect, % on AFC per 10^6 spleen cells",[1]; 45.5 μg/mouse i.v.,−0.3 p >0.05%
same,"Effect, % on AFC per spleen",[1]; 45.5 μg/mouse i.v.,−8.9 p > 0.05%
same,"Amount of antibody-forming cells per 10^6 spleen cells, M ± SEM (relative amount of AFC)",[1]; 91 μg/mouse i.v.,692.9±44.8
same,"Amount of antibody-forming cells per spleen, M ± SEM (total AFC amount)",[1]; 91 μg/mouse i.v.,87.6±4.3 × 10^3
same,"Amount of antibody-forming cells per 10^6 spleen cells, M ± SEM (relative amount of AFC)",[1]; 136.5 μg/mouse i.v.,1354.3±99.9
same,"Amount of antibody-forming cells per spleen, M ± SEM (total AFC amount)",[1]; 136.5 μg/mouse i.v.,138.9±10.0 × 10^3
same,Dose at which immunostimulating effect in vivo is displayed (micelle form),[1],91 μg/mouse
same,Immunogenic activity,[1]; dose of 45.5 μg/mouse,no immunogenic activity
same,immunostimulating action,[1]; doses of 91 and 136.5 μg/mouse,high immunostimulating action
same,Amount of hemagglutinins,[2]; 45.5 μg/mouse i.v.,6.0 ± 0.3 Log2 T
same,"Effect, % on hemagglutinins",[2]; 45.5 μg/mouse i.v.,−3.2 p > 0.05%
same,Amount of hemagglutinins,[2]; 91 μg/mouse i.v.,6.5 ± 0.4 Log2 T
same,"Effect, % on hemagglutinins",[2]; 91 μg/mouse i.v.,+4.8 p > 0.05%
same,Amount of hemagglutinins,[2]; 136.5 μg/mouse i.v.,7.5±0.2 Log2 T
"CC1=C(/C=C/C(C)=C/C=C/C(C)=C\C(=O)NCCOP(=O)(O)O)C(C)(C)CCC1 [Compound 1a, N-(13-cis-retinoyl)-o-phospho-2-aminoethanol]",Dose at which immunostimulating effect in vivo is displayed (micelle form),[1],91 μg/mouse
same,Amount of hemagglutinins,[2]; 45.5 μg/mouse i.v.,7.6 ± 0.3 Log2 T
same,"Effect, % on hemagglutinins",[2]; 45.5 μg/mouse i.v.,"−1,3 p > 0.05%"
same,Amount of hemagglutinins,[2]; 91 μg/mouse i.v.,7.6 ± 0.2 Log2 T
same,"Effect, % on hemagglutinins",[2]; 91 μg/mouse i.v.,"−1,3 p > 0.05%"
same,Amount of hemagglutinins,[2]; 136.5 μg/mouse i.v.,8.2 ± 0.4 Log2 T
same,"Effect, % on hemagglutinins",[2]; 136.5 μg/mouse i.v.,"+6,5 p > 0.05%"
"CC/C=C\C/C=C\C/C=C\C/C=C\C/C=C\C/C=C\CCC(=O)N[C@H](C(=O)O)[C@@H](C)OP(=O)(O)O [Compound 11, N-docosahexaenoyl-o-phospho-L-threonine]",Amount of hemagglutinins,[2]; 45.5 μg/mouse i.v.,8.3 ± 0.3 Log2 T
same,Amount of hemagglutinins,[2]; 91 μg/mouse i.v.,8.0 ± 0.5 Log2 T
same,Amount of hemagglutinins,[2]; 136.5 μg/mouse i.v.,9.3 ± 0.2 Log2 T
"CC/C=C\C/C=C\C/C=C\C/C=C\C/C=C\C/C=C\CCC(=O)N[C@@H](Cc1ccc(OP(=O)(O)O)cc1)C(=O)O [Compound 12, N-docosahexaenoyl-o-phospho-L-tyrosine]","Amount of antibody-forming cells per 10^6 spleen cells, M ± SEM (relative amount of AFC)",[1]; 45.5 μg/mouse i.v.,263.8±23.6
same,"Amount of antibody-forming cells per spleen, M ± SEM (total AFC amount)",[1]; 45.5 μg/mouse i.v.,31.8±2.8 × 10^3
same,"Effect, % on AFC per 10^6 spleen cells",[1]; 45.5 μg/mouse i.v.,−9.4 p >0.05%
same,"Effect, % on AFC per spleen",[1]; 45.5 μg/mouse i.v.,−9.1 p >0.05%
same,"Amount of antibody-forming cells per 10^6 spleen cells, M ± SEM (relative amount of AFC)",[1]; 91 μg/mouse i.v.,307.8±30.9
same,"Amount of antibody-forming cells per spleen, M ± SEM (total AFC amount)",[1]; 91 μg/mouse i.v.,40.2±2.7 × 10^3
same,"Effect, % on AFC per 10^6 spleen cells",[1]; 91 μg/mouse i.v.,+5.7 p > 0.05%
same,"Effect, % on AFC per spleen",[1]; 91 μg/mouse i.v.,+14.9 p > 0.05%
same,"Amount of antibody-forming cells per 10^6 spleen cells, M ± SEM (relative amount of AFC)",[1]; 136.5 μg/mouse i.v.,682.6±33.3
same,"Amount of antibody-forming cells per spleen, M ± SEM (total AFC amount)",[1]; 136.5 μg/mouse i.v.,69.6±6.0 × 10^3
same,immunostimulating action,[1]; dose of 136.5 μg/mouse,high immunostimulating action
same,Immunogenic activity,[1]; doses of 45.5 and 91 μg/mouse,no immunogenic activity
same,Amount of hemagglutinins,[2]; 45.5 μg/mouse i.v.,7.4 ± 0.3 Log2 T
same,"Effect, % on hemagglutinins",[2]; 45.5 μg/mouse i.v.,+2.8 p >0.05%
same,Amount of hemagglutinins,[2]; 91 μg/mouse i.v.,7.4 ± 0.3 Log2 T
same,"Effect, % on hemagglutinins",[2]; 91 μg/mouse i.v.,+2.8 p > 0.05%
same,Amount of hemagglutinins,[2]; 136.5 μg/mouse i.v.,7.8 ± 0.3 Log2 T
same,"Effect, % on hemagglutinins",[2]; 136.5 μg/mouse i.v.,+7.7 p > 0.05%
"CC/C=C\C/C=C\C/C=C\C/C=C\C/C=C\CCCC(=O)NCCOP(=O)(O)O [Compound 13, N-eicosapentaenoyl-o-phospho-2-aminoethanol]",Amount of hemagglutinins,[2]; 45.5 μg/mouse i.v.,9.7 ± 1.2 Log2 T
same,Amount of hemagglutinins,[2]; 91 μg/mouse i.v.,9.5 ± 1.2 Log2 T
same,Amount of hemagglutinins,[2]; 136.5 μg/mouse i.v.,10.3 ± 0.9 Log2 T
"CC/C=C\C/C=C\C/C=C\CCCCCCCC(=O)N[C@H](C(=O)O)[C@@H](C)OP(=O)(O)O [Compound 19, N-linolenoyl-o-phospho-L-threonine]",Amount of hemagglutinins,[2]; 45.5 μg/mouse i.v.,8.1 ± 0.3 Log2 T
same,Amount of hemagglutinins,[2]; 91 μg/mouse i.v.,8.3 ± 0.4 Log2 T
same,Amount of hemagglutinins,[2]; 136.5 μg/mouse i.v.,8.5 ± 0.3 Log2 T
"CC/C=C\C/C=C\C/C=C\CCCCCCCC(=O)N[C@@H](Cc1ccc(OP(=O)(O)O)cc1)C(=O)O [Compound 20, N-(cis-9,12,15-octadecatrienoyl)-O-phospho-L-tyrosine]",Amount of antibody-forming cells per 10^6 spleen cells,[3]; 45.5 μg/mouse,512.8±46.2 cells per 10^6 spleen cells
same,Amount of antibody-forming cells per spleen,[3]; 45.5 μg/mouse,46.4±4.8 × 10^3
same,Effect on relative amount of AFC (per 10^6 spleen cells),[3]; 45.5 μg/mouse,−9.8 p > 0.05%
same,Effect on total AFC amount (per spleen),[3]; 45.5 μg/mouse,−7.4 p > 0.05%
same,Spleen index,[3]; 45.5 μg/mouse,6.3 ± 0.3 10^−3
same,Amount of antibody-forming cells per 10^6 spleen cells,[3]; 91 μg/mouse,634.5±51.7 cells per 10^6 spleen cells
same,Amount of antibody-forming cells per spleen,[3]; 91 μg/mouse,55.7±5.6 × 10^3
same,Effect on relative amount of AFC (per 10^6 spleen cells),[3]; 91 μg/mouse,+11.6 p > 0.05%
same,Effect on total AFC amount (per spleen),[3]; 91 μg/mouse,+11.2 p > 0.05%
same,Effect on hemagglutinin titers,[3]; 91 μg/mouse,+1.4 p > 0.05%
same,Spleen index,[3]; 91 μg/mouse,6.5 ± 0.2 10^−3
same,immunostimulating action,[3]; 136.5 μg/mouse,marked immunostimulating action
same,Amount of antibody-forming cells per 10^6 spleen cells,[3]; 136.5 μg/mouse,845.1±43.1 cells per 10^6 spleen cells
same,Amount of antibody-forming cells per spleen,[3]; 136.5 μg/mouse,75.8±7.7 × 10^3
same,Effect on hemagglutinin titers,[3]; 136.5 μg/mouse,+2.7 p > 0.05%
same,Spleen index,[3]; 136.5 μg/mouse,6.4 ± 0.4 10^−3
same,Immunogenic activity,[3]; 45.5 and 91 μg/mouse,no immunogenic activity
